Experimental data from paper PMC5218480 (PLoS ONE, 2017).

System: MV-4-11 cells
Experiment: Gene expression microarray analysis (Affymetrix PrimeView) and GSEA
Format: cell-based, human
Set-up: RFU PODN (11730768_x_at) / Fold change /veh PODN (11730768_x_at) / RFU LINC00158 (11744669_a_at) / Fold change /veh LINC00158 (11744669_a_at) / RFU DUSP10 (11751237_a_at) / Fold change /veh DUSP10 (11751237_a_at) / RFU ID3 (11757404_x_at) / Fold change /veh ID3 (11757404_x_at) / RFU PLEKHG5 (11737974_s_at) / Fold change /veh PLEKHG5 (11737974_s_at) / RFU LRRC4B (11730491_at) / Fold change /veh LRRC4B (11730491_at) / RFU GIMAP4 (11747438_a_at) / Fold change /veh GIMAP4 (11747438_a_at) / RFU KRT8 (11758183_x_at) / Fold change /veh KRT8 (11758183_x_at) / RFU CNN1 (11734310_a_at) / Fold change /veh CNN1 (11734310_a_at) / RFU VPS37D (11726825_at) / Fold change /veh VPS37D (11726825_at) / RFU C10orf10 (11716522_x_at) / Fold change /veh C10orf10 (11716522_x_at) / RFU KIR2DL2 /// KIR2DL4 /// KIR2DL5A /// KIR2DL5B /// KIR2DS1 /// KIR2DS2 /// KIR2DS3 /// KIR2DS4 /// KIR3DL3 /// KIR3DL3 /// KIR3DS1 (11738374_at) / Fold change /veh KIR2DL2 /// KIR2DL4 /// KIR2DL5A /// KIR2DL5B /// KIR2DS1 /// KIR2DS2 /// KIR2DS3 /// KIR2DS4 /// KIR3DL3 /// KIR3DL3 /// KIR3DS1 (11738374_at) / RFU C1QL1 (11718748_at) / Fold change /veh C1QL1 (11718748_at) / RFU TMPRSS4 (11747572_a_at) / Fold change /veh TMPRSS4 (11747572_a_at) / RFU HAMP (11756126_x_at) / Fold change /veh HAMP (11756126_x_at) / RFU RNFT2 (11725882_a_at) / Fold change /veh RNFT2 (11725882_a_at) / RFU NR4A2 (11747474_a_at) / Fold change /veh NR4A2 (11747474_a_at) / RFU ABCC12 (11746883_a_at) / Fold change /veh ABCC12 (11746883_a_at) / RFU TMEM136 (11760407_x_at) / Fold change /veh TMEM136 (11760407_x_at) / RFU CLDN22 /// WWC2 (11732394_at) / Fold change /veh CLDN22 /// WWC2 (11732394_at) / RFU HLA-DPB1 (11760878_x_at) / Fold change /veh HLA-DPB1 (11760878_x_at) / RFU SPINT1 (11716480_a_at) / Fold change /veh SPINT1 (11716480_a_at) / RFU GAP43 (11754022_s_at) / Fold change /veh GAP43 (11754022_s_at) / RFU A4GNT (11735810_at) / Fold change /veh A4GNT (11735810_at) / RFU PRB3 (11715151_x_at) / Fold change /veh PRB3 (11715151_x_at) / RFU TUBB4B (11761932_at) / Fold change /veh TUBB4B (11761932_at) / RFU CAPN14 (11732068_a_at) / Fold change /veh CAPN14 (11732068_a_at) / RFU TMCC2 (11721928_a_at) / Fold change /veh TMCC2 (11721928_a_at) / RFU IRGQ (11745062_a_at) / Fold change /veh IRGQ (11745062_a_at) / RFU FAM174B (11720279_a_at) / Fold change /veh FAM174B (11720279_a_at) / RFU TMPRSS4 (11748680_a_at) / Fold change /veh TMPRSS4 (11748680_a_at) / RFU FAM212B (11763350_a_at) / Fold change /veh FAM212B (11763350_a_at) / RFU PLEKHG5 (11743358_a_at) / Fold change /veh PLEKHG5 (11743358_a_at) / RFU ZSCAN30 (11745921_a_at) / Fold change /veh ZSCAN30 (11745921_a_at) / RFU CMKLR1 (11741424_a_at) / Fold change /veh CMKLR1 (11741424_a_at) / RFU LOC101060620 /// MAPK8IP1 (11723275_at) / Fold change /veh LOC101060620 /// MAPK8IP1 (11723275_at) / RFU SPTSSB (11747773_x_at) / Fold change /veh SPTSSB (11747773_x_at) / RFU PRSS12 (11739890_at) / Fold change /veh PRSS12 (11739890_at) / RFU BIN1 (11741810_x_at) / Fold change /veh BIN1 (11741810_x_at) / RFU WNT11 (11732464_a_at) / Fold change /veh WNT11 (11732464_a_at) / RFU C10orf10 (11716521_a_at) / Fold change /veh C10orf10 (11716521_a_at) / RFU C5orf56 (11738089_at) / Fold change /veh C5orf56 (11738089_at) / RFU CYB561 (11721691_x_at) / Fold change /veh CYB561 (11721691_x_at) / RFU ANKRD19P (11752326_a_at) / Fold change /veh ANKRD19P (11752326_a_at) / RFU OR2T12 /// OR2T33 /// OR2T8 (11738714_s_at) / Fold change /veh OR2T12 /// OR2T33 /// OR2T8 (11738714_s_at) / RFU VCAN (11748164_a_at) / Fold change /veh VCAN (11748164_a_at) / RFU JSRP1 (11732532_at) / Fold change /veh JSRP1 (11732532_at) / RFU KRTAP10-11 (11738290_x_at) / Fold change /veh KRTAP10-11 (11738290_x_at) / RFU MYO3A (11730013_a_at) / Fold change /veh MYO3A (11730013_a_at) / RFU EBF3 (11725865_a_at) / Fold change /veh EBF3 (11725865_a_at) / RFU CAMK2N1 (11719241_x_at) / Fold change /veh CAMK2N1 (11719241_x_at) / RFU C5orf56 (11738088_a_at) / Fold change /veh C5orf56 (11738088_a_at) / RFU OLFML3 (11715873_a_at) / Fold change /veh OLFML3 (11715873_a_at) / RFU LOC100653217 /// NTM (11731650_a_at) / Fold change /veh LOC100653217 /// NTM (11731650_a_at) / RFU MAPK11 (11762145_a_at) / Fold change /veh MAPK11 (11762145_a_at) / RFU FIZ1 (11724087_x_at) / Fold change /veh FIZ1 (11724087_x_at) / RFU OASL (11726364_x_at) / Fold change /veh OASL (11726364_x_at) / RFU SOX15 (11748057_x_at) / Fold change /veh SOX15 (11748057_x_at) / RFU CD79A (11719716_a_at) / Fold change /veh CD79A (11719716_a_at) / RFU HIST1H1D (11736915_at) / Fold change /veh HIST1H1D (11736915_at) / RFU CASKIN2 (11723855_a_at) / Fold change /veh CASKIN2 (11723855_a_at) / RFU LOC730098 (11760151_x_at) / Fold change /veh LOC730098 (11760151_x_at) / RFU OR4N2 (11742367_at) / Fold change /veh OR4N2 (11742367_at) / RFU PRRT2 (11749266_a_at) / Fold change /veh PRRT2 (11749266_a_at) / RFU SNX32 (11753110_a_at) / Fold change /veh SNX32 (11753110_a_at) / RFU CDHR5 (11726645_a_at) / Fold change /veh CDHR5 (11726645_a_at) / RFU RCAN1 (11760418_a_at) / Fold change /veh RCAN1 (11760418_a_at) / RFU FAM167A (11723789_a_at) / Fold change /veh FAM167A (11723789_a_at) / RFU FAM26E (11764081_at) / Fold change /veh FAM26E (11764081_at) / RFU ISYNA1 (11749810_s_at) / Fold change /veh ISYNA1 (11749810_s_at) / RFU ACY1 (11761880_at) / Fold change /veh ACY1 (11761880_at) / RFU 11764098_at / Fold change /veh 11764098_at / RFU SAMD14 (11745864_x_at) / Fold change /veh SAMD14 (11745864_x_at) / RFU NPB (11741838_a_at) / Fold change /veh NPB (11741838_a_at) / RFU TMPRSS6 (11731388_a_at) / Fold change /veh TMPRSS6 (11731388_a_at) / RFU KRTAP10-2 (11738614_at) / Fold change /veh KRTAP10-2 (11738614_at) / RFU ARHGAP8 /// PRR5-ARHGAP8 (11727945_x_at) / Fold change /veh ARHGAP8 /// PRR5-ARHGAP8 (11727945_x_at) / RFU KRTAP5-7 /// NADSYN1 (11734609_at) / Fold change /veh KRTAP5-7 /// NADSYN1 (11734609_at) / RFU RASL12 (11751679_a_at) / Fold change /veh RASL12 (11751679_a_at) / RFU CDKN2B (11736163_a_at) / Fold change /veh CDKN2B (11736163_a_at) / RFU PRF1 (11729649_at) / Fold change /veh PRF1 (11729649_at) / RFU, ZNF638 /// ZNF638-IT1 / Fold change vs veh, ZNF638 /// ZNF638-IT1 / RFU, PANK3 / Fold change vs veh, PANK3 / RFU, SH3YL1 / Fold change vs veh, SH3YL1 / RFU, ZEB2 / Fold change vs veh, ZEB2 / RFU, NRIP1 / Fold change vs veh, NRIP1 / RFU, PTTG1IP / Fold change vs veh, PTTG1IP / RFU, CAPN2 / Fold change vs veh, CAPN2 / RFU, MED14 / Fold change vs veh, MED14 / RFU, SNORA58 / Fold change vs veh, SNORA58 / RFU, C1orf63 / Fold change vs veh, C1orf63 / RFU, LRRFIP1 / Fold change vs veh, LRRFIP1 / RFU, NDUFAF7 / Fold change vs veh, NDUFAF7 / RFU, SLC12A2 / Fold change vs veh, SLC12A2 / RFU, IBTK / Fold change vs veh, IBTK / RFU, ESF1 / Fold change vs veh, ESF1 / Fold change vs veh, TMEM50B / RFU, TAOK1 / Fold change vs veh, TAOK1 / RFU, ACBD3 / Fold change vs veh, ACBD3 / RFU, TMA16 / Fold change vs veh, TMA16 / RFU, RWDD3 / Fold change vs veh, RWDD3 / RFU, BCAT1 / Fold change vs veh, BCAT1 / RFU, EDEM3 / Fold change vs veh, EDEM3 / RFU, TMEM33 / Fold change vs veh, TMEM33 / RFU, WDR75 / Fold change vs veh, WDR75 / RFU, AHCTF1 / Fold change vs veh, AHCTF1 / RFU, TFRC / Fold change vs veh, TFRC / RFU, ZDHHC17 / Fold change vs veh, ZDHHC17 / RFU, NOM1 / Fold change vs veh, NOM1 / RFU, ARL8B / Fold change vs veh, ARL8B / RFU, ZBTB11 / Fold change vs veh, ZBTB11 / RFU, TAMM41 / Fold change vs veh, TAMM41 / RFU, KIAA1704 /// LOC100996395 / Fold change vs veh, KIAA1704 /// LOC100996395 / RFU, ING1 / Fold change vs veh, ING1 / RFU, TRMT61B / Fold change vs veh, TRMT61B / RFU, FUBP3 / Fold change vs veh, FUBP3 / RFU, TP53 / Fold change vs veh, TP53 / RFU, TNKS2 / Fold change vs veh, TNKS2 / RFU, ZFP14 / Fold change vs veh, ZFP14 / RFU, ACTR2 / Fold change vs veh, ACTR2 / RFU, PPP3R1 / Fold change vs veh, PPP3R1 / RFU, PIK3R1 / Fold change vs veh, PIK3R1 / RFU, HNRNPA1 / Fold change vs veh, HNRNPA1 / RFU, RNF170 / Fold change vs veh, RNF170 / RFU, ZNF28 / Fold change vs veh, ZNF28 / RFU, RNGTT / Fold change vs veh, RNGTT / RFU, OGT / Fold change vs veh, OGT / RFU, BRD1 / Fold change vs veh, BRD1 / RFU, MARS / Fold change vs veh, MARS / RFU, ZNF655 / Fold change vs veh, ZNF655 / RFU, FAHD1 / Fold change vs veh, FAHD1 / RFU, BDP1 / Fold change vs veh, BDP1 / RFU, LRRCC1 / Fold change vs veh, LRRCC1 / RFU, ARID1A / Fold change vs veh, ARID1A / RFU, ZNF146 / Fold change vs veh, ZNF146 / RFU, ZNF330 / Fold change vs veh, ZNF330 / RFU, GPN3 / Fold change vs veh, GPN3 / RFU, C9orf123 / Fold change vs veh, C9orf123 / RFU, N4BP2L2 / Fold change vs veh, N4BP2L2 / RFU, ARFIP1 / Fold change vs veh, ARFIP1 / RFU, FAM179B / Fold change vs veh, FAM179B / RFU, BCL10 / Fold change vs veh, BCL10 / RFU, UHRF1BP1L / Fold change vs veh, UHRF1BP1L / RFU, BET1 / Fold change vs veh, BET1 / RFU, CNOT2 / Fold change vs veh, CNOT2 / RFU, ZNF268 / Fold change vs veh, ZNF268 / Fold change vs veh, ZNF507 / RFU, DGCR2 / Fold change vs veh, DGCR2 / RFU, WDSUB1 / Fold change vs veh, WDSUB1 / Fold change vs veh, HSP90B1 /// MIR3652 / RFU, ADSS / Fold change vs veh, ADSS / RFU, GK / Fold change vs veh, GK / RFU, ZNF148 / Fold change vs veh, ZNF148 / RFU, TAF9 / Fold change vs veh, TAF9 / RFU, SLC1A5 / Fold change vs veh, SLC1A5 / RFU, SLMO2 / Fold change vs veh, SLMO2 / RFU, ABCC4 / Fold change vs veh, ABCC4 / RFU, LOC101060439 /// RAP1B / Fold change vs veh, LOC101060439 /// RAP1B / RFU, RFX7 / Fold change vs veh, RFX7 / RFU, GTPBP10 / Fold change vs veh, GTPBP10 / RFU, CNEP1R1 / Fold change vs veh, CNEP1R1 / RFU, BIVM-ERCC5 /// ERCC5 / Fold change vs veh, BIVM-ERCC5 /// ERCC5 / RFU, ILF3 / Fold change vs veh, ILF3 / RFU 11762660_at / Fold change /veh 11762660_at / RFU VCAN (11757783_s_at) / Fold change /veh VCAN (11757783_s_at) / RFU DDX43 (11728927_at) / Fold change /veh DDX43 (11728927_at) / RFU KRT8 (11758188_x_at) / Fold change /veh KRT8 (11758188_x_at) / RFU NKD1 (11759106_at) / Fold change /veh NKD1 (11759106_at) / RFU SRD5A1 (11742802_a_at) / Fold change /veh SRD5A1 (11742802_a_at) / RFU TPSAB1 /// TPSB2 (11721975_s_at) / Fold change /veh TPSAB1 /// TPSB2 (11721975_s_at) / RFU GSTM3 (11746129_a_at) / Fold change /veh GSTM3 (11746129_a_at) / RFU IL23R (11737362_x_at) / Fold change /veh IL23R (11737362_x_at) / RFU TMEM51 (11727254_a_at) / Fold change /veh TMEM51 (11727254_a_at) / RFU PIWIL2 (11732686_x_at) / Fold change /veh PIWIL2 (11732686_x_at) / RFU ORM1 (11744905_x_at) / Fold change /veh ORM1 (11744905_x_at) / RFU CCDC152 (11743942_at) / Fold change /veh CCDC152 (11743942_at) / RFU ECM1 (11717891_a_at) / Fold change /veh ECM1 (11717891_a_at) / RFU IL23R (11748794_a_at) / Fold change /veh IL23R (11748794_a_at) / RFU TNFAIP8L3 (11732012_x_at) / Fold change /veh TNFAIP8L3 (11732012_x_at) / RFU MBOAT4 (11741988_at) / Fold change /veh MBOAT4 (11741988_at) / RFU 11764193_at / Fold change /veh 11764193_at / RFU TMEM53 (11763286_at) / Fold change /veh TMEM53 (11763286_at) / RFU MAGEB2 (11727129_at) / Fold change /veh MAGEB2 (11727129_at) / RFU TMEM200A (11744735_a_at) / Fold change /veh TMEM200A (11744735_a_at) / RFU CCDC152 (11751479_a_at) / Fold change /veh CCDC152 (11751479_a_at) / RFU FAM211A (11726209_a_at) / Fold change /veh FAM211A (11726209_a_at) / RFU RGS16 (11746705_a_at) / Fold change /veh RGS16 (11746705_a_at) / RFU VCAN (11755009_s_at) / Fold change /veh VCAN (11755009_s_at) / RFU RHOB (11743442_s_at) / Fold change /veh RHOB (11743442_s_at) / RFU RGS16 (11720943_a_at) / Fold change /veh RGS16 (11720943_a_at) / RFU RGS16 (11720944_at) / Fold change /veh RGS16 (11720944_at) / RFU, VPS4B / Fold change vs veh, VPS4B / RFU, CREB1 / Fold change vs veh, CREB1 / RFU, DNAJC13 / Fold change vs veh, DNAJC13 / RFU, GNAQ / Fold change vs veh, GNAQ / RFU, CDK5R1 / Fold change vs veh, CDK5R1 / RFU, ZRANB3 / Fold change vs veh, ZRANB3 / RFU, CUL4A / Fold change vs veh, CUL4A / RFU, CCNY / Fold change vs veh, CCNY / RFU, UFL1 / Fold change vs veh, UFL1 / RFU, COG3 / Fold change vs veh, COG3 / RFU, DIAPH2 / Fold change vs veh, DIAPH2 / RFU, SKA2 / Fold change vs veh, SKA2 / RFU, AFF3 / Fold change vs veh, AFF3 / RFU, LMF1 / Fold change vs veh, LMF1 / RFU, IPO11 / Fold change vs veh, IPO11 / RFU, DFFB / Fold change vs veh, DFFB / RFU, FOXP1 / Fold change vs veh, FOXP1 / RFU, CARD8 / Fold change vs veh, CARD8 / RFU, STRN3 / Fold change vs veh, STRN3 / RFU, ADK / Fold change vs veh, ADK / RFU, RASSF2 / Fold change vs veh, RASSF2 / RFU, WIPF1 / Fold change vs veh, WIPF1 / RFU, LARP1B / Fold change vs veh, LARP1B / RFU, RASA1 / Fold change vs veh, RASA1 / RFU, RB1 / Fold change vs veh, RB1 / RFU, PPFIA1 / Fold change vs veh, PPFIA1 / RFU, MAT2A / Fold change vs veh, MAT2A / RFU, CCT5 / Fold change vs veh, CCT5 / RFU, WDR92 / Fold change vs veh, WDR92 / RFU, CUX1 / Fold change vs veh, CUX1 / RFU, TTC7A / Fold change vs veh, TTC7A / RFU, TMEM135 / Fold change vs veh, TMEM135 / RFU, DEPTOR / Fold change vs veh, DEPTOR / RFU, CPM / Fold change vs veh, CPM / RFU, DNAJB6 / Fold change vs veh, DNAJB6 / RFU, CACNA2D3 / Fold change vs veh, CACNA2D3 / RFU, DTX4 / Fold change vs veh, DTX4 / RFU, TFCP2 / Fold change vs veh, TFCP2 / RFU, GMCL1 /// GMCL1P1 / Fold change vs veh, GMCL1 /// GMCL1P1 / RFU, AEBP2 / Fold change vs veh, AEBP2 / RFU, SNHG1 /// SNORD22 /// SNORD25 /// SNORD26 /// SNORD27 /// SNORD28 /// SNORD29 /// SNORD31 / Fold change vs veh, SNHG1 /// SNORD22 /// SNORD25 /// SNORD26 /// SNORD27 /// SNORD28 /// SNORD29 /// SNORD31 / Fold change (Aza/veh), C12orf56 (ProbeSet 11735607_a_at) / Fold change (ACY-1035/veh), C12orf56 (ProbeSet 11735607_a_at) / Fold change (Aza/veh), FGFR1OP (ProbeSet 11751329_s_at) / Fold change (ACY-1035/veh), FGFR1OP (ProbeSet 11751329_s_at) / Fold change (Aza/veh), VPS36 (ProbeSet 11739960_a_at) / Fold change (ACY-1035/veh), VPS36 (ProbeSet 11739960_a_at) / RFU SYPL1 (11715823_x_at) / Fold change /veh SYPL1 (11715823_x_at) / RFU IGFBP7 (11715501_s_at) / Fold change /veh IGFBP7 (11715501_s_at) / RFU REEP3 (11722064_at) / Fold change /veh REEP3 (11722064_at) / RFU IGLL1 (11728026_x_at) / Fold change /veh IGLL1 (11728026_x_at): dose or concentration left out as unconfirmed
Conditions: MV-4-11 cells, 48 hours

Nc1ncn([C@@H]2O[C@H](CO)[C@@H](O)[C@H]2O)c(=O)n1 [azacitidine]
RFU KRT8 (11758183_x_at): 20.69 RFU
